Source: US9458110B2, “Phenylpyrazole derivatives as potent ROCK1 and ROCK2 inhibitors” (BRISTOL-MYERS SQUIBB COMPANY, priority 2013, dated 2016)

Experiments:
ROCK1 = ROCK1 (Homo sapiens (Human), UniProt Q13464); experiment: ROCK assay (Caliper LABCHIP peptide phosphorylation), ROCK1; assay type: biochemical; settings: 5 μM ATP, 1.5 μM peptide substrate;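 also: Read-out is separation of phosphorylated from unphosphorylated peptide, with kinase activity inhibition computed at every concentration of a dose-response series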
ROCK1, sequence (Q13464 whole entry, species assumed): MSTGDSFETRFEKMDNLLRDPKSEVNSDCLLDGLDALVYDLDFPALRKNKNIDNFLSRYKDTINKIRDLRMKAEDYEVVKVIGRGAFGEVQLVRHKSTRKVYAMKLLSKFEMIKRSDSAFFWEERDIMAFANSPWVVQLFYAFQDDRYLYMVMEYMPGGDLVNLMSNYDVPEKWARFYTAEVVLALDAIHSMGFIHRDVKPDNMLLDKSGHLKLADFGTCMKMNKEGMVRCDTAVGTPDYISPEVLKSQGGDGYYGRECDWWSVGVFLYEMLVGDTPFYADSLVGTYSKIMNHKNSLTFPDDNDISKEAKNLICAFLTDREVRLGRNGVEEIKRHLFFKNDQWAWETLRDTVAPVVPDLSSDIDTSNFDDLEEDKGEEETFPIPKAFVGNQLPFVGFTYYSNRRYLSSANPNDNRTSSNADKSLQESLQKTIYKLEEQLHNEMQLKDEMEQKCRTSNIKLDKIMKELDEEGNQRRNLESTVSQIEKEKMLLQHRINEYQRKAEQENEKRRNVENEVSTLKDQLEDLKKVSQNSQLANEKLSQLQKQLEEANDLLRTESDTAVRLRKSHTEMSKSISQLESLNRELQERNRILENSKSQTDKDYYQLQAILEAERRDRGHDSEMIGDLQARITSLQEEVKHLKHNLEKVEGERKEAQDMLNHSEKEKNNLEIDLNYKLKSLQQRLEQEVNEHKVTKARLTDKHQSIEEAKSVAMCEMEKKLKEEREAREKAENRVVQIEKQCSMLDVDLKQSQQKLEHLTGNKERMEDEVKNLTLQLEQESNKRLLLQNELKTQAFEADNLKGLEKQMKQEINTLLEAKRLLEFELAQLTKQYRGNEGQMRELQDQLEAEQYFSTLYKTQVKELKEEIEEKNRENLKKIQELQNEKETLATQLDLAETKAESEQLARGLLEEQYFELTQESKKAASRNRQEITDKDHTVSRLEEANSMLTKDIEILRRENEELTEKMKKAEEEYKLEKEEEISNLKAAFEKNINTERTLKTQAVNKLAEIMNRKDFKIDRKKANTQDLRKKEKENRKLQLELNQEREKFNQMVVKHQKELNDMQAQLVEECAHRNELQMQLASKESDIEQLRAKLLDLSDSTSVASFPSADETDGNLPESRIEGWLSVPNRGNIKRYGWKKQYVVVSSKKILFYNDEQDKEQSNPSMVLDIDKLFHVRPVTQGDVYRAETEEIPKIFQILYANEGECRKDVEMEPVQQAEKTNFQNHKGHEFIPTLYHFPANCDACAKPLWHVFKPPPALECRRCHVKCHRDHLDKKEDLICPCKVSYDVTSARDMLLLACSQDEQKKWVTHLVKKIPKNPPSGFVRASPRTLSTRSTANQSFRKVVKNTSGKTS

ROCK2 = ROCK2 (Homo sapiens (Human), UniProt O75116); experiment: ROCK assay (Caliper LABCHIP peptide phosphorylation), ROCK2; assay type: biochemical; settings: 5 μM ATP, 1.5 μM peptide substrate;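 also: reaction stopped with EDTA, then phosphorylated and unphosphorylated peptide resolved by microfluidic electrophoresis, kinase inhibition computed at each compound concentration in dose-response series, DMSO under 2%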
ROCK2, sequence (O75116 whole entry, species assumed): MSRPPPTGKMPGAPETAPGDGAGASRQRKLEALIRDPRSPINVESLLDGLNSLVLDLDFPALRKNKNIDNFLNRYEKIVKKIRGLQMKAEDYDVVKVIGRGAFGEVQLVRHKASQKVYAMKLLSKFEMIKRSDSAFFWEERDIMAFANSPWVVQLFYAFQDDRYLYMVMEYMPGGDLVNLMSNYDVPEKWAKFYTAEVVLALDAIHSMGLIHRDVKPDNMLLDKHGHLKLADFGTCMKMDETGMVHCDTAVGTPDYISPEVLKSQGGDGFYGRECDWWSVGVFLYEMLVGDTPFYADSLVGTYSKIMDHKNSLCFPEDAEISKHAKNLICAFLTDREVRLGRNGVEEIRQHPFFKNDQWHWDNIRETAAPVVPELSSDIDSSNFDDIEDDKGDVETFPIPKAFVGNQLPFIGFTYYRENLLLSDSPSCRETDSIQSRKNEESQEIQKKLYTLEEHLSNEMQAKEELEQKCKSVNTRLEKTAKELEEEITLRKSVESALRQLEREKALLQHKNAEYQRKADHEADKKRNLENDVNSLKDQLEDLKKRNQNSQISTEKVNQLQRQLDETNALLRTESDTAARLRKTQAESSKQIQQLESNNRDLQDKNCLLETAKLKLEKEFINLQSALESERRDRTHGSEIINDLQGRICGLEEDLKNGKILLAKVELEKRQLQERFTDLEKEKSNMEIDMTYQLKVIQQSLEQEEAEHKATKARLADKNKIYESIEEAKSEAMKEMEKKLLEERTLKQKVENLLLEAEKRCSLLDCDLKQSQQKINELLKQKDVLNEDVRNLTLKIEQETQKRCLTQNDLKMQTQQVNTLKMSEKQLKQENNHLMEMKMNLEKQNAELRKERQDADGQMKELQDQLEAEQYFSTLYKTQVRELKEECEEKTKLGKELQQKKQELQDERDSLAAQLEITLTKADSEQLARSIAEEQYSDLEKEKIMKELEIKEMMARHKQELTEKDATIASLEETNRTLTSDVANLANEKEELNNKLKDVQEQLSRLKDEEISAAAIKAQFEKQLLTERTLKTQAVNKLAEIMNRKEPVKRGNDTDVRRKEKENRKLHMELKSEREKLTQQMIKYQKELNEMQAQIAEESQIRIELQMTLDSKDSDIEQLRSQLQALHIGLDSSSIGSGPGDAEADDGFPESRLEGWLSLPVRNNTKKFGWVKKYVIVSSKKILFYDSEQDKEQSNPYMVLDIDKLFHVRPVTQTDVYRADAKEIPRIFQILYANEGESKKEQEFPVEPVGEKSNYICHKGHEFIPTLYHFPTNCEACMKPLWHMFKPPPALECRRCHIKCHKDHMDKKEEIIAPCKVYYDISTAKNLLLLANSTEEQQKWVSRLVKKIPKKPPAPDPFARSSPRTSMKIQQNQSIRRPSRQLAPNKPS

Compound | IC50 (ROCK1) | IC50 (ROCK2)
COc1cc(C(=O)NC(CN2CCCC2)c2ccccc2)ccc1-c1cn[nH]c1 (centres unmarked) [Example 14, 3-methoxy-N-(1-phenyl-2-(pyrrolidin-1-yl)ethyl)-4-(1H-pyrazol-4-yl)benzamide] | 243 nM | 86.4 nM
COc1cc(C(=O)NCc2nc3ccccc3s2)ccc1-c1cn[nH]c1 [Example 16, N-(benzo[d]thiazol-2-ylmethyl)-3-methoxy-4-(1H-pyrazol-4-yl)benzamide] | 556 nM | 438 nM
Cc1cc(C(=O)NC(C)c2cccc(O)n2)ccc1-c1cn[nH]c1 (centres unmarked) [Example 168, N-[1-(6-hydroxypyridin-2-yl)ethyl]-3-methyl-4-(1H-pyrazol-4-yl)benzamide] | 130 nM | 46.7 nM
C[C@@H](NC(=O)c1ccc(-c2cn[nH]c2)c(C#N)c1)c1ccc(F)cc1 [Example 193, 3-cyano-N-[(1R)-1-(4-fluorophenyl)ethyl]-4-(1H-pyrazol-4-yl)benzamide] | 873 nM | 289 nM
Cc1cc(C(=O)N[C@H](CN)c2ccccc2)ccc1-c1cn[nH]c1 [Example 256, N-[(15)-2-amino-1-phenylethyl]-3-methyl-4-(1H-pyrazol-4-yl)benzamide] | 3.38 nM | 0.72 nM
COc1cc(C(=O)NC[C@H](C)c2ccccc2)ccc1-c1cn[nH]c1 [Example 117, 3-methoxy-N-[(2R)-2-phenylpropyl]-4-(1H-pyrazol-4-yl)benzamide] | 50.5 nM | 30.2 nM
COc1cc(C(=O)NCc2cccc(OC(F)(F)F)c2)ccc1-c1cn[nH]c1 [Example 28, 3-methoxy-4-(1H-pyrazol-4-yl)-N-(3-(trifluoro-methoxy)benzyl) benzamide] | 1710 nM | 40.9 nM
COc1cc(C(=O)NCc2ccc3nc(N)sc3c2)ccc1-c1cn[nH]c1 [Example 77, N-((2-aminobenzo[d]thiazol-6-yl)methyl)-3-methoxy-4-(1H-pyrazol-4-yl)benzamide] | 1240 nM | 401 nM
COc1cccc([C@@H](C)NC(=O)c2ccc(-c3cn[nH]c3)cc2S(C)(=O)=O)c1 [Example 61, (R)-N-(1-(3-Methoxyphenyl)ethyl)-2-(methylsulfonyl)-4-(1H-pyrazol-4-yl)benzamide] | > 2000 nM | 4590 nM
COc1cc(C(=O)NCc2ccc3[nH]c(=O)[nH]c3c2)ccc1-c1cn[nH]c1 [Example 102, 3-methoxy-N-[(2-oxo-2,3-dihydro-1H-1,3-benzodiazol-5-yl)methyl]-4-(1H-pyrazol-4-yl)benzamide] | 3770 nM | 662 nM
CC(O)c1cc(C(=O)NCc2c(F)cccc2Cl)ccc1-c1cn[nH]c1 (centres unmarked) [Example 289, N-[(2-chloro-6-fluorophenyl)methyl]-3-(1-hydroxyethyl)-4-(1H-pyrazol-4-yl)benzamide] | 275 nM | 74.3 nM
COc1cccc(C2(NC(=O)c3ccc(-c4cn[nH]c4)c(OC)c3)CC2)c1 [Example 116, 3-methoxy-N-[1-(3-methoxyphenyl)cyclopropyl]-4-(1H-pyrazol-4-yl)benzamide] | 55.2 nM | 17.9 nM
COc1cc(C(=O)NC(C)(C)c2ccccc2)ccc1-c1cn[nH]c1 [Example 30, 3-methoxy-N-(2-phenylpropan-2-yl)-4-(1H-pyrazol-4-yl)benzamide] | 214 nM | 129 nM
COc1cc(C(=O)NCc2cccc(C(F)(F)F)c2)ccc1-c1cn[nH]c1 [Example 32, 3-methoxy-4-(1H-pyrazol-4-yl)-N-(3-(trifluoro-methyl)benzyl) benzamide] | 43.3 nM | 11.5 nM
N#Cc1cc(C(=O)N[C@H](CO)c2c(F)cccc2F)ccc1-c1cn[nH]c1 [Example 198, 3-cyano-N-[(1S)-1-(2,6-difluorophenyl)-2-hydroxyethyl]-4-(1H-pyrazol-4-yl)benzamide] | 397 nM | 140 nM
COc1cc(C(=O)NCc2cccnc2)ccc1-c1cn[nH]c1 [Example 19, 3-methoxy-4-(1H-pyrazol-4-yl)-N-(pyridin-3-ylmethyl) benzamide] | 104 nM | 23.8 nM
CC(O)c1cc(C(=O)N[C@H](C)c2ccccc2)ccc1-c1cn[nH]c1 (stereo partly drawn) [Example 273, 3-(1-hydroxyethyl)-N-[(1R)-1-phenylethyl]-4-(1H-pyrazol-4-yl)benzamide] | 50 nM | 7.73 nM
COc1cc(C(=O)NC[C@@H](O)c2ccccc2)ccc1-c1cn[nH]c1 [Example 123, N-[(2S)-2-hydroxy-2-phenylethyl]-3-methoxy-4-(1H-pyrazol-4-yl)benzamide] | 84.1 nM | 41.6 nM
COc1cc(C(=O)NCc2ccccc2Cl)ccc1-c1c[nH]nc1C [Example 57, N-(2-Chlorobenzyl)-3-methoxy-4-(3-methyl-1H-pyrazol-4-yl)benzamide] | 147 nM | 101 nM

Other lines, results leading:

IC50 (ROCK1) | IC50 (ROCK2) | Compound
26.3 nM | 11 nM | COc1cc(C(=O)N[C@H](C)[C@@H](O)c2ccccc2)ccc1-c1cn[nH]c1 [Example 42, N-((1S,2R)-1-hydroxy-1-phenylpropan-2-yl)-3-methoxy-4-(1H-pyrazol-4-yl)benzamide]
8.92 nM | 3.45 nM | NC[C@@H](NC(=O)c1ccc(-c2cn[nH]c2)c(OCCO)c1)c1ccccc1 [Example 258, N-[(15)-2-amino-1-phenylethyl]-3-(2-hydroxyethoxy)-4-(1H-pyrazol-4-yl)benzamide]
21.8 nM | 3.94 nM | COc1cc(C(=O)NCc2cccc(OC(F)F)c2)ccc1-c1cn[nH]c1 [Example 78, N-(3-(difluoro-methoxy)benzyl)-3-methoxy-4-(1H-pyrazol-4-yl)benzamide]
1.53 nM | 7.75 nM | COc1cc(C(=O)NC(CCN(C)C)c2ccccc2)ccc1-c1cn[nH]c1 (centres unmarked) [Example 179, N-[3-(dimethylamino)-1-phenylpropyl]-3-methoxy-4-(1H-pyrazol-4-yl)benzamide]
7.72 nM | 2.2 nM | COc1cc(C(=O)NCc2cc(Cl)ccc2Cl)ccc1-c1cn[nH]c1 [Example 76, N-(2,5-dichlorobenzyl)-3-methoxy-4-(1H-pyrazol-4-yl)benzamide]
16.5 nM | 6.6 nM | COc1cc(C(=O)NCCc2ccccc2Cl)ccc1-c1cn[nH]c1 [Example 35, N-(2-chloro-phenethyl)-3-methoxy-4-(1H-pyrazol-4-yl)benzamide]
23.5 nM | 5.09 nM | COc1ccc(F)c(C(C)NC(=O)c2ccc(-c3c[nH]nc3C)cc2OC)c1 (centres unmarked) [Example 147, N-[1-(2-fluoro-5-methoxyphenyl)ethyl]-2-methoxy-4-(3-methyl-1H-pyrazol-4-yl)benzamide]
14.3 nM | 2.47 nM | COc1ccc(F)c(CNC(=O)c2ccc(-c3cn[nH]c3)c(OC)c2)c1 [Example 49, N-(2-fluoro-5-methoxybenzyl)-3-methoxy-4-(1H-pyrazol-4-yl)benzamide]
2.26 nM | 1.29 nM | CCNC[C@@H](NC(=O)c1ccc(-c2cn[nH]c2)c(OC)c1)c1c(F)cccc1F [Example 265, N-[(1S)-1-(2,6-Difluorophenyl)-2-(ethylamino)ethyl]-3-methoxy-4-(1H-pyrazol-4-yl)benzamide]
34.1 nM | 8.26 nM | COc1cc(C(=O)NCc2cc(F)c(F)c(F)c2)ccc1-c1cn[nH]c1 [Example 75, 3-methoxy-4-(1H-pyrazol-4-yl)-N-(3,4,5-trifluorobenzyl) benzamide]
30.6 nM | 21 nM | COc1cccc([C@@H](C)NC(=O)c2ccc(-c3c[nH]nc3C#N)cc2OC)c1 [Example 303, 4-(3-Cyano-1H-pyrazol-4-yl)-2-methoxy-N-[(1R)-1-(3-methoxyphenyl)ethyl]benzamide]
12.4 nM | 6.4 nM | COc1cc(C(=O)NC(CCO)c2ccccc2)ccc1-c1cn[nH]c1 (centres unmarked) [Example 90, N-(3-hydroxy-1-phenylpropyl)-3-methoxy-4-(1H-pyrazol-4-yl)benzamide]
23.6 nM | 9.37 nM | COc1cc(C(=O)N[C@H](CNC(C)=O)c2ccccc2)ccc1-c1cn[nH]c1 [Example 259, N-[(25)-2-{[3-methoxy-4-(1H-pyrazol-4-yl)phenyl] formamido}-2-phenylethyl] acetamide]
19.7 nM | 9.83 nM | Cc1cc(C(=O)NCc2c(F)cccc2Cl)ccc1-c1cn[nH]c1 [Example 151, N-[(2-chloro-6-fluorophenyl)methyl]-3 methyl-4-(1H-pyrazol-4-yl)benzamide]
11.7 nM | 2.94 nM | COc1cc(C(=O)NC(CO)c2ccccc2F)ccc1-c1cn[nH]c1 (centres unmarked) [Example 162, N-[1-(2-fluorophenyl)-2-hydroxyethyl]-3-methoxy-4-(1H-pyrazol-4-yl)benzamide]
38.5 nM | 7.66 nM | COc1cc(C(=O)NCc2cc(F)cc(F)c2F)ccc1-c1cn[nH]c1 [Example 91, 3-methoxy-4-(1H-pyrazol-4-yl)-N-[(2,3,5-trifluorophenyl)methyl] benzamide]
16.9 nM | 4.69 nM | COc1cc(C(=O)NCc2ccc(Br)cc2Cl)ccc1-c1cn[nH]c1 [Example 45, N-(4-bromo-2-chlorobenzyl)-3-methoxy-4-(1H-pyrazol-4-yl)benzamide]
35.5 nM | 23.2 nM | COc1cc(C(=O)NCC(O)c2ccccc2Cl)ccc1-c1cn[nH]c1 (centres unmarked) [Example 122, N-[2-(2-chlorophenyl)-2-hydroxyethyl]-3-methoxy-4-(1H-pyrazol-4-yl)benzamide]
34 nM | 33.1 nM | COc1cc(C(=O)NC[C@@H](C)c2ccccc2)ccc1-c1cn[nH]c1 [Example 129, 3-methoxy-N-[(2S)-2-phenylpropyl]-4-(1H-pyrazol-4-yl)benzamide]
22.3 nM | 34.8 nM | COc1cccc([C@@H](C)NC(=O)c2ccc(-c3c[nH]nc3C)cc2OCCN(C)C)c1 [Example 311, 2-[2-(dimethylamino)ethoxy]-N-[(1R)-1-(3-methoxyphenyl)ethyl]-4-(3-methyl-1H-pyrazol-4-yl)benzamide]
24.9 nM | 9.44 nM | COc1cc(C(=O)NCc2ccc3sccc3c2)ccc1-c1cn[nH]c1 [Example 104, N-(1-benzothiophen-5-ylmethyl)-3-methoxy-4-(1H-pyrazol-4-yl)benzamide]
